Source: patent US20210038753A1, “BIOLOGICAL STERILIZATION INDICATOR WITH STERILANT RESISTANCE MODULATOR” (3M INNOVATIVE PROPERTIES COMPANY, priority 2014, published 2021)

Tested on: Geobacillus stearothermophilus spores
Test: Resistance of self-contained biological indicators to hydrogen peroxide sterilization, growth readout by pH colour change (GRO+)
Assay type: cell-based
Experimental: PET film (.09 mm thick) was coated with colloidal silica as described in International Publication No. WO2014/189716, which is incorporated herein by reference in its entirety. […] Separate aqueous spore coating solutions were prepared as described in Example 1 with the amino acids shown in table 4 present in the coating solutions. Two microliter aliquots (containing at least 10^6 spores) of the respective spore coating solutions were deposited onto the silica-coated PET film, forming a series of spaced-apart spots on the film. The spore coated films were dried in a 60° C. incubator for 12 minutes. Circular discs (hereinafter, “coated carriers”) of the PET film, each disc including one of the dried spots, were punched out and were used to assemble self-contained biological indicators (BI) similar to that shown in FIG. 1 of International Publication No. WO2014/189716. The coated carriers described above were placed into the “spore carrier 135” shown in FIG. 1 of International Publication No. WO2014/189716. Each self-contained BI comprised a polycarbonate outer container, a breaker, a cap, and a cap filter. Disposed inside the outer container were a coated carrier along with an ampoule media containing the nutrient medium from 3M ATTEST 1292 Rapid Readout Biological Indicators plus 5g/L methionine (as described in Example 1).
The self-contained biological indicators with different concentrations of additives (Table 4) were exposed to hydrogen peroxide sterilization in STERRAD NX sterilizer. The sterilization processes were run by manually injecting 1.0 ml of 59% hydrogen peroxide per load, unless specified otherwise. The exposure time was varied to determine the resistance profile of self-contained BIs with different additive formulations. The BIs were activated by pressing down the cap to break the media ampoule. The activated BIs were placed in a bench-top fluorimeter (3M Company, St. Paul, Minn.) to detect fluorescence.
A self-contained BI that is not completely inactivated (i.e., not all of the spores are killed by the sterilization process) will resume cellular functions upon activation of the BI. The production of glucosidase enzyme by surviving spores is an indication that at least one of the spores have not been inactivated (killed) by the sterilization process. The glucosidase enzyme cleaves the 4-methylumbelliferyl-glucoside (MUG) releasing the fluorescent methyl umbelliferone, which is detected using a bench-top fluorimeter. Growth and proliferation of spores in the self-contained biological indicator can also be detected by a pH change, which may be detected by a color change of the pH indicator in the growth medium.
Self-contained biological indicators were prepared (with various additives listed in table 4) as described above in this Example. For each additive tested, a lower range and a higher range was used as a preliminary screen to identify additives modulated the resistance of the spores to the sterilant. Five self-contained BIs representing each condition were exposed to hydrogen peroxide sterilization in STERRAD NX sterilizer. The sterilization processes used a constant injection volume (1.0 ml of 59% hydrogen peroxide) and various times (e.g., 20 seconds to 7 minutes) of exposure to the hydrogen peroxide. The self-contained BIs were activated after exposure to the sterilization process and were monitored for fluorescence using a bench-top fluorimeter) and pH based color change (visually). […]
Self-contained biological indicators (with various additives listed in table 5) were prepared as described in Example 2. The self-contained biological indicators were exposed to hydrogen peroxide in a STERRAD NX sterilizer as described in Example 2. The self-contained BIs were activated after exposure to the sterilization process and were monitored for fluorescence using a bench-top fluorimeter and pH based color change (visually).

N=C(N)NCCC[C@H](N)C(=O)O [L-arginine]
sensitivity of the biological indicator to the sterilization process relative to the control with no additives (Example 2 / Comparative Example 1 (Table 4), fluorescence and growth readouts): increased sensitivity (decreased resistance)
sensitivity of the spores to the damaging/lethal effects of the sterilization process relative to the control with no additives (Example 3 (Table 5), fluorescence and growth readouts): increased sensitivity
percentage of self-contained biological indicators positive for growth (GRO+) (Table 4, modulator 0.01 weight percent in spore coating solution, H2O2 exposure 30 sec.): 100%
percentage of self-contained biological indicators positive for growth (GRO+) (Table 4, modulator 0.01 weight percent in spore coating solution, H2O2 exposure 60 sec.): 0%
percentage of self-contained biological indicators positive for growth (GRO+) (Table 4, modulator 0.01 weight percent in spore coating solution, H2O2 exposure 90 sec.): 0%
percentage of self-contained biological indicators positive for growth (GRO+) (Table 4, modulator 0.01 weight percent in spore coating solution, H2O2 exposure 3 min.): 0%
percentage of self-contained biological indicators positive for growth (GRO+) (Table 4, modulator 0.01 weight percent in spore coating solution, H2O2 exposure 7 min.): 0%
percentage of self-contained biological indicators positive for growth (GRO+) (Table 4, modulator 0.1 weight percent in spore coating solution, H2O2 exposure 30 sec.): 40%
percentage of self-contained biological indicators positive for growth (GRO+) (Table 4, modulator 0.1 weight percent in spore coating solution, H2O2 exposure 60 sec.): 0%
percentage of self-contained biological indicators positive for growth (GRO+) (Table 4, modulator 0.1 weight percent in spore coating solution, H2O2 exposure 90 sec.): 0%
percentage of self-contained biological indicators positive for growth (GRO+) (Table 4, modulator 0.1 weight percent in spore coating solution, H2O2 exposure 3 min.): 0%
percentage of self-contained biological indicators positive for growth (GRO+) (Table 4, modulator 0.1 weight percent in spore coating solution, H2O2 exposure 7 min.): 0%
percentage of self-contained biological indicators positive for growth (GRO+) (Table 5, modulator 0.05 weight percent in spore coating solution, H2O2 exposure 20 sec.): 100%
percentage of self-contained biological indicators positive for growth (GRO+) (Table 5, modulator 0.05 weight percent in spore coating solution, H2O2 exposure 30 sec.): 100%
percentage of self-contained biological indicators positive for growth (GRO+) (Table 5, modulator 0.05 weight percent in spore coating solution, H2O2 exposure 60 sec.): 0%
percentage of self-contained biological indicators positive for growth (GRO+) (Table 5, modulator 0.05 weight percent in spore coating solution, H2O2 exposure 90 sec.): 0%
percentage of self-contained biological indicators positive for growth (GRO+) (Table 5, modulator 0.05 weight percent in spore coating solution, H2O2 exposure 3 min.): 0%
percentage of self-contained biological indicators positive for growth (GRO+) (Table 5, modulator 0.05 weight percent in spore coating solution, H2O2 exposure 7 min.): 0%
percentage of self-contained biological indicators positive for growth (GRO+) (Table 5, modulator 0.1 weight percent in spore coating solution, H2O2 exposure 20 sec.): 100%
percentage of self-contained biological indicators positive for growth (GRO+) (Table 5, modulator 0.1 weight percent in spore coating solution, H2O2 exposure 30 sec.): 100%
percentage of self-contained biological indicators positive for growth (GRO+) (Table 5, modulator 0.1 weight percent in spore coating solution, H2O2 exposure 60 sec.): 0%
percentage of self-contained biological indicators positive for growth (GRO+) (Table 5, modulator 0.1 weight percent in spore coating solution, H2O2 exposure 90 sec.): 0%
percentage of self-contained biological indicators positive for growth (GRO+) (Table 5, modulator 0.1 weight percent in spore coating solution, H2O2 exposure 3 min.): 0%
percentage of self-contained biological indicators positive for growth (GRO+) (Table 5, modulator 0.1 weight percent in spore coating solution, H2O2 exposure 7 min.): 0%
percentage of self-contained biological indicators positive for growth (GRO+) (Table 5, modulator 0.2 weight percent in spore coating solution, H2O2 exposure 20 sec.): 100%
percentage of self-contained biological indicators positive for growth (GRO+) (Table 5, modulator 0.2 weight percent in spore coating solution, H2O2 exposure 30 sec.): 100%
percentage of self-contained biological indicators positive for growth (GRO+) (Table 5, modulator 0.2 weight percent in spore coating solution, H2O2 exposure 60 sec.): 0%
percentage of self-contained biological indicators positive for growth (GRO+) (Table 5, modulator 0.2 weight percent in spore coating solution, H2O2 exposure 90 sec.): 0%
percentage of self-contained biological indicators positive for growth (GRO+) (Table 5, modulator 0.2 weight percent in spore coating solution, H2O2 exposure 3 min.): 0%
percentage of self-contained biological indicators positive for growth (GRO+) (Table 5, modulator 0.2 weight percent in spore coating solution, H2O2 exposure 7 min.): 0%
percentage of self-contained biological indicators positive for growth (GRO+) (Table 5, modulator 0.4 weight percent in spore coating solution, H2O2 exposure 20 sec.): 67%
percentage of self-contained biological indicators positive for growth (GRO+) (Table 5, modulator 0.4 weight percent in spore coating solution, H2O2 exposure 30 sec.): 33%
percentage of self-contained biological indicators positive for growth (GRO+) (Table 5, modulator 0.4 weight percent in spore coating solution, H2O2 exposure 60 sec.): 0%
percentage of self-contained biological indicators positive for growth (GRO+) (Table 5, modulator 0.4 weight percent in spore coating solution, H2O2 exposure 90 sec.): 0%
percentage of self-contained biological indicators positive for growth (GRO+) (Table 5, modulator 0.4 weight percent in spore coating solution, H2O2 exposure 3 min.): 0%
percentage of self-contained biological indicators positive for growth (GRO+) (Table 5, modulator 0.4 weight percent in spore coating solution, H2O2 exposure 7 min.): 0%
percentage of self-contained biological indicators positive for growth (GRO+) (Table 5, modulator 0.8 weight percent in spore coating solution, H2O2 exposure 20 sec.): 33%
percentage of self-contained biological indicators positive for growth (GRO+) (Table 5, modulator 0.8 weight percent in spore coating solution, H2O2 exposure 30 sec.): 0%
percentage of self-contained biological indicators positive for growth (GRO+) (Table 5, modulator 0.8 weight percent in spore coating solution, H2O2 exposure 60 sec.): 0%
percentage of self-contained biological indicators positive for growth (GRO+) (Table 5, modulator 0.8 weight percent in spore coating solution, H2O2 exposure 90 sec.): 0%
percentage of self-contained biological indicators positive for growth (GRO+) (Table 5, modulator 0.8 weight percent in spore coating solution, H2O2 exposure 3 min.): 0%
